One assay deals with MDA-MB-468. Briefly: NCI DTP 60 cell line screen, SRB.
The subject of assay [1] is RXF 393. Briefly: cells. As to conditions: Homo sapiens, RXF 393, 48 h; for CC50: read-out: LC50.
Assay [2] deals with RXF 393. As to conditions: RXF 393 (Renal Cancer), 48 h, SRB.
For assay [3], the system named is breast cancer lines MCF-7 and MDA-MB-231. The assay is described as follows: MTT cell viability assay, both breast cancer lines. The assay is classed as cell-based. The settings on record: Homo sapiens; MCF-7 and MDA-MB-231, MTT; read-out: GI50 level. On the procedure:
In the second stage of the research, Ciminalum-thiazolidinone hybrids were investigated for antitumor activity on the lines of gastric cancer (AGS), human colon cancer (DLD-1), and breast cancers (MCF-7 and MDA-MB-231). The study was performed in the MTT assay according to the method described previously. The studied cancer line was sensitive to the action of the studied compounds that inhibited its growth in micromolar ranges of GI50. The hit compounds that inhibited the growth of all four cancer lines with the lowest GI50 values were [5-[2-chloro-3-(4-nitrophenyl)prop-2-enylidene]-rhodanines 2c, 2d, 2h, and 2i (Table 4).
(In general: Tetrazolium dyes change colour on reduction, which living cells bring about.)

The structures appear in SMILES notation.

Usually GI50 stands for the concentration that inhibits growth by half. The TGI is the concentration giving total growth inhibition. Low values mean more potent growth arrest, high ones less potent growth arrest.

For `O=C(O)C(Cc1ccccc1)N1C(=O)/C(=C/C(Cl)=C/c2ccc([N+](=O)[O-])cc2)SC1=S` (stereo not shown) [Compound 2j, 2-{5-[(Z,2Z)-2-Chloro-3-(4-nitrophenyl)-2-propenylidene]-4-oxo-2-thioxothiazolidin-3-yl}-3-phenylpropanoic acid], the GI50 with MDA-MB-468 (Homo sapiens, MDA-MB-468, 48 h) was found to be 1.39 µM; in the assay with RXF 393 [1], 1.54 µM. For the same compound, the CC50 is 7.71 µM in the assay on MDA-MB-468 (Homo sapiens, MDA-MB-468, 48 h, read-out: LC50) and 5.93 µM with RXF 393 [1]. The TGI in the assay on MDA-MB-468 (MDA-MB-468 (Breast Cancer), 48 h, SRB) is 3.28 µM; in the assay with RXF 393 [2], 3.02 µM.
For `O=C(O)CCN1C(=O)/C(=C/C(Cl)=C/c2ccc([N+](=O)[O-])cc2)SC1=S` [Compound 2h, 3-{5-[(Z,2Z)-2-Chloro-3-(4-nitrophenyl)-2-propenylidene]-4-oxo-2-thioxothiazolidin-3-yl}propanoic acid], the GI50 in the assay on RXF 393 [1] is 0.105 µM; in assay [3], 0.95 to 1.74 µM. The CC50 in the assay on RXF 393 [1] came to 1.73 µM. Moreover, the TGI with RXF 393 [2] worked out at 0.341 µM.

(Values after PMC8161026, “Synthesis and Anticancer Activity Evaluation of 5-[2-Chloro-3-(4-nitrophenyl)-2-propenylidene]-4-thiazolidinones” (Molecules, 2021).)
